The structures appear in SMILES notation. Like-named read-outs stand apart in the source and are kept apart here.

The values that follow come from patent US20250134828A1, “MOLECULAR SOLID SUSPENSIONS FOR TRANSDERMAL DRUG DELIVERY” (Starton Therapeutics, Inc., priority 2023, published 2025).

For data set [1] the following is noted: cited from earlier work; for Water Sol: Table 2.
Data set [2] is described as follows: In vitro permeation (flux) test, modified Franz vertical diffusion cell, Strat-M synthetic membrane. The class given is in vitro ADME. The method, then:
For in vitro permeation testing, the prepared transdermal formulations in the following examples were subjected to a flux (in vitro permeation) test as follows with either full-split thickness human cadaver skin or Strat-M® synthetic membrane. The full-split thickness human cadaver skin is prepared by thawing at room temperature in DI water, after which it is placed into a 55° C. water bath for a few minutes. After removal from elevated temperature water bath, the stratum corneum layer is removed, inspected, blotted, and cut into suitable sized samples for placement on a modified Franz vertical diffusion cell. Meanwhile, the Strat-M® synthetic membrane is utilized as instructed by the Millipore-Sigma instruction guide on its use. The patches are die cut to a 5/16″ diameter (˜0.5 cm^2) and affixed to the skin with use of an overlay to secure patch to skin. Receiver media is either standard saline (0.9% NaCl in DI water) or a fixed concentration (1%-5%) of povidone in DI Water. Sample volume is 5 mL, Franz cell volume is 5 mL. […] Actual patch size is 0.5 cm^2 with an effective flux area of about 0.6 cm^2. Aliquots taken are analyzed by HPLC method for each independent API. Typically, 3-5 replicates per formulation are performed to ensure adequate statistical significance is obtained for each study.

A short description of data set [3]: Drug product stability: potency and degradation products by relative retention time, liquid chromatography. It counts as physicochemical. The settings on record: with panthenol and/or other humectants; long term stability studies at room temperature and above 40° C. The text has this:
In Example 9, the effect of the incorporation of a humectant (e.g., panthenol) into the molecular solid suspension on the API stability and permeability is shown. […] In the tables below, TDS-009 includes 8 wt. % LLD, 5 wt. % Panthenol, 10% Poloxamer P407, 5 wt. % crospovidone and 22.5 wt. % Brij L4 in the presence of 49.5 wt. % DuroTak 87-4098 acrylic PSA, while TDS-011 is the same as TDS-009 without presence of 5 wt. % Panthenol, making up for the 5 wt. % difference with additional DuroTak 87-4098 acrylic PSA for a total of 54.5 wt. %.
Generally, the incorporation of panthenol into the molecular solid suspension results in a 10-fold reduction in hydrolytic degradation.
Each of the above formulations was protected from light, but not from ambient storage conditions of about 21° C. and ambient relative humidity.

Data set [4] is classed as in vitro ADME.

Turning to `Clc1cccc(Cl)c1N=C1NCCN1` [Clonidine], the “Water Sol” value in data set [1] is on record as about 1 mg/mL.

As for `C#C[C@]1(O)CC[C@H]2[C@@H]3CCc4cc(O)ccc4[C@H]3CC[C@@]21C` [Ethinyl Estradiol], the “Water Sol” value in data set [1] is on record as about 0.1 mg/mL.

In the case of `CN1C2CCCC1CC(NC(=O)c1nn(C)c3ccccc13)C2` (centres unmarked) [Granisetron], in data set [1], the “Water Sol” value is listed as about 40 mg/mL and the water solubility entry is reported as “less than 0.1 mg/mL”.

`C[C@@H]1C[C@H]2[C@@H]3CCC4=CC(=O)C=C[C@]4(C)[C@@]3(F)[C@@H](O)C[C@]2(C)[C@@]1(O)C(=O)CO` [dexamethasone]: the “increase in slope (average flux and cumulative flux)” value in data set [2] (5 wt. % dexamethasone, 5 wt. % Kollidon CLM, 20 wt. % Laureth-4, 70 wt. % Durotak 87-4098 vs comparators, FIGS. 9-10) is on record as “almost an infinite increase”.

As to `O=C1CC[C@H](N2Cc3c(OCc4ccc(CN5CCOCC5)cc4)cccc3C2=O)C(=O)N1` [iberdomide], in data set [1], the water solubility result was “less than 2 mg/mL”.

For `Nc1cccc2c1CN(C1CCC(=O)NC1=O)C2=O` (centres unmarked) [lenalidomide], the observed flux rate in data set [2] (4 wt. % drug formulation, FIGS. 13-14) was determined as 2.4 μg/cm^2/hr. The average flux rate in data set [2] (6 wt. % lenalidomide without panthenol, FIGS. 13-14) is recorded as 4.2 μg/cm^2/hr; in data set [2] (6 wt. % lenalidomide without panthenol, FIGS. 15-16) it was 5.1 μg/cm^2/hr; in data set [2] (6 wt. % lenalidomide, 5 wt. % panthenol, after about the 8 hour time point, FIGS. 13-14), 5.4 μg/cm^2/hr; in data set [2] (6 wt. % lenalidomide, 5 wt. % panthenol, after about the 8 hour time point, FIGS. 15-16) it was 7.5 μg/cm^2/hr; in data set [2] (10 wt. % lenalidomide without panthenol, FIGS. 11-12), 3.4 μg/cm^2/hr; in data set [2] (10 wt. % lenalidomide, 5 wt. % panthenol, after about the 8 hour time point, FIGS. 11-12), 4.7 μg/cm^2/hr. For the same molecule, the “overall permeation relative to same formulation excluding panthenol” value in data set [2] (6 wt. % lenalidomide, 5 wt. % panthenol, FIGS. 13-14) was “about 1.2 times”; in data set [2] (6 wt. % lenalidomide, 5 wt. % panthenol, FIGS. 15-16), “about 1.5 times”; in data set [2] (10 wt. % lenalidomide, 5 wt. % panthenol, FIGS. 11-12) it was “about 1.4 times”. The average flux result in data set [2] (HLB below 12 surfactants (O3, O5) with poloxamer P407 vs without poloxamer, FIG. 21) is “increased”; in data set [2] (at 24 hours, with both humectant and high HLB nonionic surfactant (panthenol and P407), low HLB surfactant O3, FIG. 17), “about 6 μg/cm^2/hr”; in data set [2] (formulations with greater than about 15 wt. % O3 vs about 15 wt. % or less, FIG. 19) it was “significantly higher”; in data set [4] (formulations with greater than about 15 wt. % O3 vs about 15 wt. % or less, FIG. 18), “significantly higher”; in data set [4] (nonionic surfactants with HLB below 12 (O3, O5) vs HLB above 12 (O10, O20), FIG. 20), “increased”. Besides, in data set [3], the hydrolytic degradation result is on record as “inhibits hydrolytic degradation”.

In the case of `Cc1cc2c(s1)Nc1ccccc1N=C2N1CCN(C)CC1` [olanzapine, 2-methyl-10-(4-methyl-1-piperazinyl)-4H-thieno-[2,3-b][1,5]benzo-diazepine], the depletion came to 100% in data set [2] (5 wt. % olanzapine molecular solid suspension with Laureth-4, after about 24 hours) and 60% in data set [2] (other two olanzapine formulations (no Laureth-4), over 72 hours). In addition, in data set [2] (5 wt. % olanzapine molecular solid suspension with Laureth-4 vs comparators, FIG. 3), the “increase in availability (average flux) at about 8-hour time point” value is on record as “about 16 ×”. The “increase in slope for cumulative flux” value in data set [2] (5 wt. % olanzapine, 5 wt. % Kollidon CLM, 20 wt. % Laureth-4, 70 wt. % Durotak 87-4098 vs formulations without Laureth-4, FIG. 4) was “approximately 1.2 ×”.
